Assay results published in patent publication US20230255953A1, “USE OF ROLUPERIDONE IN PREVENTING RELAPSE IN SCHIZOPHRENIA PATIENTS” (Minerva Neurosciences, Inc., priority 2022, published 2023).

Columns and labels:
[1] = tested on: patients with negative symptoms of schizophrenia; assay: Study #2 (MIN-101C07): CGI-S and CGI-I; format: in vivo, human; details: Week 12 DB, ITT
Experimental: The CGI-S is a clinician-rated scale that is designed to rate the severity of the patient's illness at the time of assessment, including knowledge of the patient's history, psychosocial circumstances, symptoms, behavior, and the impact of the symptoms on the patient's ability to function relative to the clinician's past experience with patients who have the same diagnosis and similar improvement with treatment. Considering total clinical experience, a patient is assessed on severity of mental illness at the time of rating, where 1=normal (not at all ill); 2=borderline mentally ill; 3=mildly ill; 4=moderately ill; 5=markedly ill; 6=severely ill; or 7=extremely ill.
The CGI-S and CGI-I were assessed at the timepoints described in Table 7. The CGI-S and CGI-I were exploratory endpoints in Studies MIN-101C03 and MIN-101C07.
Study #2 (also referred to as “MIN101C07”) was a Phase 3, randomized, DB, placebo-controlled, parallel-group 12-week study to evaluate the efficacy and safety of Roluperidone in patients ≥18 years to ≤55 years with negative symptoms of schizophrenia, followed by a 40-week OL extension. The study consisted of a pretreatment screening period of up to 28 days (including an antipsychotic medication washout period), a 12-week, DB, placebo-controlled period, and a 40-week OL period. Eligible patients (with moderate to severe negative symptoms of schizophrenia and stable positive symptoms but without severe symptoms of suspiciousness, agitation, hostility, uncooperativeness, or poor impulse control) were randomized 1:1:1 to receive Roluperidone 32 mg QD, Roluperidone 64 mg QD (GR01/B formulation, see U.S. Pat. No. 11,464,744), or placebo, orally, for 12 weeks. […] During the 40-week OL treatment extension, patients who were initially randomized to Roluperidone 32 mg or 64 mg continued treatment with the same dose, while patients who were initially randomized to placebo crossed over to Roluperidone 32 mg or 64 mg in a 1:1 ratio.

histaminergic receptors = details: background statement; cited from earlier work
[2] = tested on: patients with negative symptoms of schizophrenia; assay: Study #1 (MIN-101C03): Brief Assessment of Cognition in Schizophrenia; format: in vivo, human; set-up: Change from Baseline LS Mean: Brief Assessment of Cognition in Schizophrenia Total Score / Change from Baseline LS Mean: Brief Assessment of Cognition in Schizophrenia Total Verbal Fluency: unit not given here; details: Week 12 DB, ITT
Source text: (§1) Phase 2b Study #1 (also referred to herein as “MIN-101C03”) was a Phase 2b, double-blind (“DB”), placebo-controlled, randomized, multicenter 12-week study to evaluate the efficacy, safety, and tolerability of Roluperidone in patients ≥18 years to ≤60 years with negative symptoms of schizophrenia, followed by a 24-week open-label (“OL”) extension. The primary objective of the study was to evaluate the efficacy of Roluperidone compared to placebo in improving the negative symptoms of schizophrenia as measured by the change from Baseline in the PANSS negative factor score of the PSM (“PANSS PSM”) over 12 weeks of treatment.
(§2) The study consisted of a pretreatment screening period of up to 28 days (including washout), a 12-week, DB, placebo-controlled period, and a 24-week OL period. Eligible patients (who were symptomatically stable for at least 3 months and had scores of at least 20 on the PANSS negative subscale score) were randomized in a 1:1:1 ratio to receive oral Roluperidone (a modified-release, “MR”, formulation) 32 mg QD, Roluperidone 64 mg QD, or placebo for 12 weeks. […] During the 24-week, OL treatment extension period, patients who were initially randomized to Roluperidone 32 mg or 64 mg continued on the same dose, while patients who were initially randomized to placebo crossed over to Roluperidone 32 mg or 64 mg in a 1:1 ratio.

[3] = tested on: patients with negative symptoms of schizophrenia; assay: Study #1 (MIN-101C03): Calgary Depression Scale for Schizophrenia; format: in vivo, human; details: Week 12 DB, ITT
Source text: as §1, §2

What does the source list for “1H-Isoindol-1-one,2-[ [1-[2-(4-fluorophenyl)-2-oxoethyl]-4-piperidinyl]methyl]-2,3-dihydro-, hydrochloride, hydrate (1:1:2) [Roluperidone]”?
Change from Baseline LS Mean: Clinical Global Impression of Severity ([1]; 32 mg QD): −0.4; Clinical Global Impression of Improvement, LS Mean (observed data, MMRM) ([1]; 32 mg QD): 3.4; Effect Size (Cohen's d) vs Placebo: Clinical Global Impression of Improvement ([1]; 32 mg QD): −0.12; Effect Size (Cohen's d) vs Placebo: Clinical Global Impression of Severity ([1]; 32 mg QD): 0.12; Change from Baseline LS Mean: Clinical Global Impression of Severity ([1]; 64 mg QD): −0.5; Clinical Global Impression of Improvement, LS Mean (observed data, MMRM) ([1]; 64 mg QD): 3.3; Effect Size (Cohen's d) vs Placebo: Clinical Global Impression of Improvement ([1]; 64 mg QD): 0.02; Effect Size (Cohen's d) vs Placebo: Clinical Global Impression of Severity ([1]; 64 mg QD): 0.24; Affinity (histaminergic receptors): very low or no affinity; Change from Baseline LS Mean: Brief Assessment of Cognition in Schizophrenia Total Score ([2]; 32 mg QD): 23.8; Change from Baseline LS Mean: Brief Assessment of Cognition in Schizophrenia Total Verbal Fluency ([2]; 32 mg QD): 5.76; Effect Size vs Placebo: Brief Assessment of Cognition in Schizophrenia Total Score ([2]; 32 mg QD): 0.43; Effect Size vs Placebo: Total Verbal Fluency ([2]; 32 mg QD): 0.51; Change from Baseline LS Mean: Brief Assessment of Cognition in Schizophrenia Total Score ([2]; 64 mg QD): 14.9; Change from Baseline LS Mean: Brief Assessment of Cognition in Schizophrenia Total Verbal Fluency ([2]; 64 mg QD): 4.37; Effect Size vs Placebo: Brief Assessment of Cognition in Schizophrenia Total Score ([2]; 64 mg QD): 0.12; Effect Size vs Placebo: Total Verbal Fluency ([2]; 64 mg QD): 0.36; Change from Baseline LS Mean: Calgary Depression Scale for Schizophrenia ([3]; 32 mg QD): −0.37; Effect Size vs Placebo: Calgary Depression Scale for Schizophrenia ([3]; 32 mg QD): 0.25; Change from Baseline LS Mean: Calgary Depression Scale for Schizophrenia ([3]; 64 mg QD): −0.71; Effect Size vs Placebo: Calgary Depression Scale for Schizophrenia ([3]; 64 mg QD): 0.46
